Values after ≈ are worked out from the molar mass of the structure shown.
Tests used:
[1] = target: T1, PBP3 from Escherichia coli (K-12) (Escherichia coli, UniProt P0AD68); experiment: Bocillin-FL fluorescence polarization competition binding, E. coli PBP3
T1 construct: made in house
Outline: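 Purified PBPs pre-incubated with inhibitor (E. coli PBP3 1.5 μM, 30 min; P. aeruginosa PBP3 0.75 μM, A. baumannii PBP1a 1 μM and PBP3 0.2 μM, 15 min), then Bocillin-FL 0.1 μM (0.05 μM for PBP1a) added; FP read up to 60 min. EC50 = concentration halving bound Bocillin-FL.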

A. baumannii PBP2 = A. baumannii PBP2 (Acinetobacter baumannii, UniProt D0C8Z9); experiment: Bocillin-FL competition binding via gel filtration, A. baumannii PBP2
Outline: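 Enzyme was pre-incubated with rising inhibitor concentrations, then Bocillin-FL was added and incubated 15 minutes more. Bound probe was separated by gel filtration and fluorescence read. EC50 came from fitting fraction of PBP labelled versus inhibitor concentration to a Hill equation with ymin, ymax and n.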

A. baumannii ATCC 17978 = experiment: microbe, parasite or virus in culture; type: cell-based; settings: Acinetobacter baumannii, ATCC17978, read-out: MIC, A. baumannii ATCC 17978
A. baumannii ATCC 19606 = experiment: microbe, parasite or virus in culture; type: cell-based; settings: Acinetobacter baumannii, ATCC19606, read-out: MIC, A. baumannii ATCC 19606
P. aeruginosa ATCC 35151 = experiment: microbe, parasite or virus in culture; type: cell-based; settings: Pseudomonas aeruginosa, ATCC35151, read-out: Minimum inhibitory concentration, P. aeruginosa ATCC 35151
[2] = tested on: P. aeruginosa (ΔmexAB-oprM); experiment: Broth microdilution MIC in iron-depleted CAMHB (IDM); type: cell-based; settings: Pseudomonas aeruginosa; iron-depleted CAMHB (IDM); […]; read-out: Minimum inhibitory concentration, P. aeruginosa ΔmexAB-oprM
P. aeruginosa CDC-0090 = experiment: microbe, parasite or virus in culture; type: cell-based; settings: Pseudomonas aeruginosa, CDC0090, read-out: Minimum inhibitory concentration, P. aeruginosa CDC-0090
P. aeruginosa CDC-0095 = experiment: microbe, parasite or virus in culture; type: cell-based; settings: Pseudomonas aeruginosa, CDC0095, read-out: Minimum inhibitory concentration, P. aeruginosa CDC-0095
A. baumannii CDC-0033 = experiment: microbe, parasite or virus in culture; type: cell-based; settings: Acinetobacter baumannii, CDC0033, read-out: MIC, A. baumannii CDC-0033
A. baumannii CDC-0036 = experiment: microbe, parasite or virus in culture; type: cell-based; settings: Acinetobacter baumannii, CDC0036, read-out: MIC, A. baumannii CDC-0036
A. baumannii CDC-0045 = experiment: microbe, parasite or virus in culture; type: cell-based; settings: Acinetobacter baumannii, CDC0045, read-out: MIC, A. baumannii CDC-0045
[3] = tested on: B. humptydooensis ATCC BAA-2767; experiment: microbe, parasite or virus in culture; type: cell-based; settings: Burkholderia humptydooensis, ATCCBAA2767, read-out: Minimum inhibitory concentration (MIC), B. humptydooensis ATCC BAA-2767

Chain of A. baumannii PBP2 (D0C8Z9 whole entry): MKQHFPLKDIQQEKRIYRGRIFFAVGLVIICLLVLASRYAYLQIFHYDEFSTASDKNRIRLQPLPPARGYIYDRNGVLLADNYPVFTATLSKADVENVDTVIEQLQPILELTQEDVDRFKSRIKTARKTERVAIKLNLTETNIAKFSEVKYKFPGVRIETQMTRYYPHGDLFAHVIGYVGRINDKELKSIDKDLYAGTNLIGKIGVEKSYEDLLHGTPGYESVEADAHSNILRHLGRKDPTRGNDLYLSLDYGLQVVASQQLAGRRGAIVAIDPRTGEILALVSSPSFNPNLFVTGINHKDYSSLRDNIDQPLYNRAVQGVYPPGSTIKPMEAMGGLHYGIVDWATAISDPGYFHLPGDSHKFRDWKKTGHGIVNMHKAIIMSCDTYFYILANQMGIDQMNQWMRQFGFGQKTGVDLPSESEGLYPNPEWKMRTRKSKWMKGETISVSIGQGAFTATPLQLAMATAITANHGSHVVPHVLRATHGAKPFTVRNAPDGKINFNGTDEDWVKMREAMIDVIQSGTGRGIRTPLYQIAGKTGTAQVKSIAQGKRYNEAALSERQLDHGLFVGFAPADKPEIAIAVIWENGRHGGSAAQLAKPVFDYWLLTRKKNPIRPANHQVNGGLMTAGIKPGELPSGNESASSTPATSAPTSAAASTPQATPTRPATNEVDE
T1 sequence (P0AD68 1-577): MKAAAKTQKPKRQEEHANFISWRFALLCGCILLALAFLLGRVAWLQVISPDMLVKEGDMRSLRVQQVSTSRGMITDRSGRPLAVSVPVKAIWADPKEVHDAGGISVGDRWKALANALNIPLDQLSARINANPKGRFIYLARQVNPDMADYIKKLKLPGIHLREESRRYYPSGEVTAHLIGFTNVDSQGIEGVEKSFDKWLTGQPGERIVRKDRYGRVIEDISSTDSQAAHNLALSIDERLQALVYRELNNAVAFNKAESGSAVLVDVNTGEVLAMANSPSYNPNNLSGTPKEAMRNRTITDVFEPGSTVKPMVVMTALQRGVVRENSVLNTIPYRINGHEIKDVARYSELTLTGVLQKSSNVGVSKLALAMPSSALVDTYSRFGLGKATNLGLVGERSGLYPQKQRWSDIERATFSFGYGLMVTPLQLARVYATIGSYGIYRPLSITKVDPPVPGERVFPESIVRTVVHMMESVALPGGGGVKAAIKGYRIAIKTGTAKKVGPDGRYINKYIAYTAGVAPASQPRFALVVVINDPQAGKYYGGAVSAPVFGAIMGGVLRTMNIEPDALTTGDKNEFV

Row | SMILES | EC50 [1] [µM] | EC50 (A. baumannii PBP2) [µM] | MIC (A. baumannii ATCC 17978) [µg/mL] | MIC (A. baumannii ATCC 19606) [µg/mL] | MIC (P. aeruginosa ATCC 35151) [µg/mL] | MIC [2] [µg/mL] | MIC (P. aeruginosa CDC-0090) [µg/mL] | MIC (P. aeruginosa CDC-0095) [µg/mL] | MIC (A. baumannii CDC-0033) [µg/mL] | MIC (A. baumannii CDC-0036) [µg/mL] | MIC (A. baumannii CDC-0045) [µg/mL] | MIC [3] [µg/mL]
1 | O=C(NCCCS(=O)(=O)N1CCN(C(=O)NC(C(=O)N[C@H]2Cc3ccc(F)c(C(=O)O)c3OB2O)c2cc(F)c(O)c(O)c2Cl)C1=O)Nc1cccc(O)c1 (stereo partly drawn) [Example 277, (3R)-3-(2-(2-chloro-5-fluoro-3,4-dihydroxyphenyl)-2-(3-((3-(3-(3-hydroxyphenyl)ureido)propyl)sulfonyl)-2-oxoimidazolidine-1-carboxamido)acetamido)-7-fluoro-2-hydroxy-3,4-dihydro-2H-benzo[e][1,2]oxaborinine-8-carboxylic acid] | < 10 | < 10 | < 1 | < 1 | < 1 | < 1 | 2 to 4 (≈ 2.47 to 4.93 µM) | 8 to 16 (≈ 9.87 to 19.7 µM) | 2 to 4 (≈ 2.47 to 4.93 µM) | 2 to 4 (≈ 2.47 to 4.93 µM) | 2 to 4 (≈ 2.47 to 4.93 µM) | > 128
2 | O=C(NCCN1CCN(C(=O)N[C@@H](C(=O)N[C@H]2Cc3ccc(F)c(C(=O)O)c3OB2O)c2cc(F)c(O)c(O)c2Cl)C1=O)Nc1ccc(O)cc1 [Example 279, (R)-3-((R)-2-(2-chloro-5-fluoro-3,4-dihydroxyphenyl)-2-(3-(2-(3-(4-hydroxyphenyl)ureido)ethyl)-2-oxoimidazolidine-1-carboxamido)acetamido)-7-fluoro-2-hydroxy-3,4-dihydro-2H-benzo[e][1,2]oxaborinine-8-carboxylic acid] | < 10 | 10 to 50 | < 1 | < 1 | < 1 | < 1 | 2 to 4 (≈ 2.73 to 5.46 µM) | 2 to 4 (≈ 2.73 to 5.46 µM) | 2 to 4 (≈ 2.73 to 5.46 µM) | < 1 | < 1 | < 1
3 | O=C(NCCCN1CCN(C(=O)NC(C(=O)N[C@H]2Cc3ccc(F)c(C(=O)O)c3OB2O)c2cc(F)c(O)c(O)c2Cl)C1=O)c1ccc(O)cc1 (stereo partly drawn) [Example 280, (3R)-3-(2-(2-chloro-5-fluoro-3,4-dihydroxyphenyl)-2-(3-(3-(4-hydroxybenzamido)propyl)-2-oxoimidazolidine-1-carboxamido)acetamido)-7-fluoro-2-hydroxy-3,4-dihydro-2H-benzo[e][1,2]oxaborinine-8-carboxylic acid] | 10 to 50 | 10 to 50 | < 1 | < 1 | < 1 | < 1 | 2 to 4 (≈ 2.73 to 5.47 µM) | 8 to 16 (≈ 10.9 to 21.9 µM) | 2 to 4 (≈ 2.73 to 5.47 µM) | 2 to 4 (≈ 2.73 to 5.47 µM) | < 1 | 2 to 4 (≈ 2.73 to 5.47 µM)
4 | O=C(NCCCN1CCN(C(=O)N[C@@H](C(=O)N[C@H]2Cc3ccc(F)c(C(=O)O)c3OB2O)c2cc(F)c(O)c(O)c2Cl)C1=O)Nc1ccc(O)cc1 [Example 284, (R)-3-((R)-2-(2-chloro-5-fluoro-3,4-dihydroxyphenyl)-2-(3-(3-(3-(4-hydroxyphenyl)ureido)propyl)-2-oxoimidazolidine-1-carboxamido)acetamido)-7-fluoro-2-hydroxy-3,4-dihydro-2H-benzo[e][1,2]oxaborinine-8-carboxylic acid] | 10 to 50 | < 10 | < 1 | < 1 | < 1 | < 1 | < 1 | < 1 | < 1 | < 1 | < 1 | < 1
5 | O=C(NCCCN1CCN(C(=O)NC(C(=O)N[C@H]2Cc3ccc(F)c(C(=O)O)c3OB2O)c2cc(F)c(O)c(O)c2Cl)C1=O)Nc1ccncc1 (stereo partly drawn) [Example 285, (3R)-3-(2-(2-chloro-5-fluoro-3,4-dihydroxyphenyl)-2-(2-oxo-3-(3-(3-(pyridin-4-yl)ureido)propyl)imidazolidine-1-carboxamido)acetamido)-7-fluoro-2-hydroxy-3,4-dihydro-2H-benzo[e][1,2]oxaborinine-8-carboxylic acid] | 10 to 50 | 10 to 50 | < 1 | < 1 | < 1 | < 1 | 2 to 4 (≈ 2.73 to 5.47 µM) | > 128 | 8 to 16 (≈ 10.9 to 21.9 µM) | 8 to 16 (≈ 10.9 to 21.9 µM) | 2 to 4 (≈ 2.73 to 5.47 µM) | 2 to 4 (≈ 2.73 to 5.47 µM)

From patent US20240270762A1, “PENICILLIN-BINDING PROTEIN INHIBITORS” (priority 2021, published 2024)
